# Tests used:
# [1] = log P determination by reversed-phase HPLC (EEC Directive 79/831 Annex V.A8; acidic or neutral mobile phase); type: physicochemical; conditions: HPLC reversed-phase C18, 43° C., acidic range: 0.1% aqueous phosphoric acid, acetonitrile gradient (marked a))
# Summary of the method: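 Reversed-phase C18 HPLC per EEC Directive 79/831 Annex V.A8 at 43° C. Linear gradient of 10% to 90% acetonitrile, run against 0.1% aqueous phosphoric acid for the acidic range (a) or 0.01 molar aqueous phosphate buffer for the neutral range (b).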
# weeds [2] = assay: Pre-emergence test (Example A), herbicidal activity; type: in vivo; conditions: soil sprayed 24 hours after sowing, rated after three weeks
# Description: (§1) • Solvent: 5 parts by weight of acetone • Emulsifier: 1 part by weight of alkylaryl polyglycol ether
# (§2) To produce a suitable preparation of active compound, 1 part by weight of active compound is mixed with the stated amount of solvent, the stated amount of emulsifier is added and the concentrate is diluted with water to the desired concentration.
# Seeds of the test plants are sown in normal soil. After 24 hours, the soil is sprayed with the preparation of active compound such that the particular amount of active compound desired is applied per unit area. The concentration of active compound in the spray liquor is chosen such that the particular amount of active compound desired is applied in 1000 liters of water per hectare.
# After three weeks, the degree of damage to the plants is rated in % damage in comparison to the development of the untreated control. The figures denote: • 0%=no effect (like untreated control) • 100%=total destruction
# weeds [3] = assay: Post-emergence test (Example B), herbicidal activity; type: in vivo; conditions: test plants of 5-15 cm sprayed, rated after three weeks
# Description: as §1, §2
# Test plants of a height of 5-15 cm are sprayed with the preparation of active compound such that the particular amounts of active compound desired are applied per unit area. The concentration of the spray liquor is chosen such that the particular amounts of active compound desired are applied in 1000 l of water/ha.
# After three weeks, the degree of damage to the plants is rated in % damage in comparison to the development of the untreated control.
# The figures denote: • 0%=no effect (like untreated control) • 100%=total destruction
"chromatographic logP ([1]; reversed-phase C18 HPLC column, read-out: logP)",Structure (SMILES),logP [1],activity against weeds (degree of damage) (weeds [2]),activity against weeds (degree of damage) (weeds [3])
,CCS(=O)(=O)NCCOc1c(Cl)ccc(C(=O)C2C(=O)CCCC2=O)c1Cl [Example 4],logP = 2.36^a),strong activity,strong activity
,CS(=O)(=O)NCCOc1c(Cl)ccc(C(=O)C2C(=O)CCCC2=O)c1Cl [Example 5],logP = 2.16^a),strong activity,strong activity
1.86,"CCn1ncc(C(=O)c2ccc(Cl)c(OCCNS(=O)(=O)CC)c2Cl)c1O [Example 2, 4-[2,4-dichloro-3-(N-ethylsulphonylaminoethoxy)benzoyl]-1-ethyl-5-hydroxypyrazole]",,strong activity,strong activity
